Results from ChEMBL document CHEMBL1139672, “1,2,3,4-Tetrahydroisoquinolinyl sulfamic acids as phosphatase PTP1B inhibitors” (Bioorg Med Chem Lett, 2006).

What was measured:
[1] = biological target: T1, Tyrosine-protein phosphatase non-receptor type 2 (Homo sapiens, UniProt P17706); experiment: Inhibition of TCPTP
T1 sequence (P17706 whole entry): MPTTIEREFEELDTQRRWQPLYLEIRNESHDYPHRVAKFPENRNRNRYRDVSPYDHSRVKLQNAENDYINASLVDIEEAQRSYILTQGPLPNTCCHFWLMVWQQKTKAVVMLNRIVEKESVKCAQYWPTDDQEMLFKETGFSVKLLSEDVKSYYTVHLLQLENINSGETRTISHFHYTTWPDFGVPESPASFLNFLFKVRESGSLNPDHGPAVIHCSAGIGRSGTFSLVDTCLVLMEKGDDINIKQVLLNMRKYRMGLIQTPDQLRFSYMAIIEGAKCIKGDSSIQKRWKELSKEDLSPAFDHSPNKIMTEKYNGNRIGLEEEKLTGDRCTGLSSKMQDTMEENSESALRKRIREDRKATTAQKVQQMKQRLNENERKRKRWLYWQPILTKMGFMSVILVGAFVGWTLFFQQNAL

[2] = biological target: T2, Low molecular weight phosphotyrosine protein phosphatase (Homo sapiens, UniProt P24666); experiment: Inhibition of HCPTPA
T2 sequence (P24666 whole entry): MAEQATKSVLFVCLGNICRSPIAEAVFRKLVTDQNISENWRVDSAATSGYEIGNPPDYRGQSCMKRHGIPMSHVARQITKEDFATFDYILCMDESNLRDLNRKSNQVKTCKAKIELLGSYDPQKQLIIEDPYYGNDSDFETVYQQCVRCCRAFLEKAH

[3] = biological target: T3, Tyrosine-protein phosphatase non-receptor type 11 (Homo sapiens, UniProt Q06124); experiment: Inhibition of SHP2
T3 sequence (Q06124 whole entry): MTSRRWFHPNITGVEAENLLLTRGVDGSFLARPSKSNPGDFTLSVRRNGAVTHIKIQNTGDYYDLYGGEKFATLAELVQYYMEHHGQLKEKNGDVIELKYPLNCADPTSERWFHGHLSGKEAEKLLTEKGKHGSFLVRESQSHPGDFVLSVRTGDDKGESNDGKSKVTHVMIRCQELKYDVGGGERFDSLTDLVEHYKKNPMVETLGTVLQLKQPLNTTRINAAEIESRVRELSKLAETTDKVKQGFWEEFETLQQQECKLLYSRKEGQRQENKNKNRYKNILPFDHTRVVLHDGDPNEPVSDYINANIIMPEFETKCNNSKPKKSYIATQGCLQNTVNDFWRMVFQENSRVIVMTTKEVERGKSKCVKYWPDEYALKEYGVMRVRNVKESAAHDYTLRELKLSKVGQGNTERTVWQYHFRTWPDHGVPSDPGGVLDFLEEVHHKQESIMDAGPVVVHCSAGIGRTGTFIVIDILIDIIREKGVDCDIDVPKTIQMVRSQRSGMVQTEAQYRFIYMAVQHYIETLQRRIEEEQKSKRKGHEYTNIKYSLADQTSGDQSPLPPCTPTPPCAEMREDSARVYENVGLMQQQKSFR

[4] = biological target: T1, Tyrosine-protein phosphatase non-receptor type 2; experiment: Inhibition of TC-PTP38

IC50 [1]: 9.4 µM
IC50 [2]: 3.1 µM
IC50 [3]: > 500 µM
IC50 [4]: 9.9 µM
Compound: CNC(=O)[C@@H]1Cc2ccc(NS(=O)(=O)O)cc2CN1C(=O)CCc1cccc(NS(=O)(=O)O)c1
